In patent US11180462B2, “Microbiocidal oxadiazole derivatives” (SYNGENTA PARTICIPATIONS AG, priority 2015, dated 2021):

Columns and labels:
[1] = test system: Puccinia recondita f. Sp. Tritici; test: Fungicidal activity against Puccinia recondita f. sp. tritici / wheat / leaf disc preventative (brown rust); assay type: in vivo; details: foliar, 200 ppm in the applied formulation, wheat leaf segments, preventative, compared to untreated control leaf disks, read-out: disease control
Outline: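 Percent disease control relative to untreated check segments is scored once disease develops, 7 to 9 days after application. Wheat cv. Kanzler segments receive compound spray (200 ppm in formulation) one day before spore inoculation, then sit at 19° C. and 75% rh under 12 h light/12 h dark.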

[2] = test system: Puccinia recondita f. Sp. Tritici; test: Fungicidal activity against Puccinia recondita f. sp. tritici / wheat / leaf disc curative (brown rust); assay type: in vivo; details: foliar, 24 h, 200 ppm in the applied formulation, wheat leaf segments, curative (applied 1 day after inoculation), compared to untreated control leaf disks, read-out: disease control
Description: Leaf disks or leaf segments of various plant species are cut from plants grown in a greenhouse. The cut leaf disks or segments are placed in multiwell plates (24-well format) onto water agar. The leaf disks are sprayed with a test solution before (preventative) or after (curative) inoculation. Compounds to be tested are prepared as DMSO solutions (max. 10 mg/ml) which are diluted to the appropriate concentration with 0.025% Tween20 just before spraying. The inoculated leaf disks or segments are incubated under defined conditions (temperature, relative humidity, light, etc.) according to the respective test system. A single evaluation of disease level is carried out 3 to 14 days after inoculation, depending on the pathosystem. Percent disease control relative to the untreated check leaf disks or segments is then calculated.
Fungicidal Activity Against Puccinia recondita f. Sp. Tritici/Wheat/Leaf Disc Curative (Brown Rust)
Wheat leaf segments cv. Kanzler are placed on agar in multiwell plates (24-well format). The leaf segments are then inoculated with a spore suspension of the fungus. Plates were stored in darkness at 19° C. and 75% relative humidity. The formulated test compound diluted in water was applied 1 day after inoculation. The leaf segments were incubated at 19° C. and 75% relative humidity under a light regime of 12 hours light/12 hours darkness in a climate cabinet and the activity of a compound was assessed as percent disease control compared to untreated when an appropriate level of disease damage appears in untreated check leaf segments (6 to 8 days after application).
The following compounds at 200 ppm in the applied formulation give at least 80% disease control in this test when compared to untreated control leaf disks under the same conditions, which show extensive disease development.

[3] = test system: Glomerella lagenarium (Colletotrichum lagenarium); test: Fungicidal activity against Glomerella lagenarium (Colletotrichum lagenarium) liquid culture / cucumber / preventative (anthracnose); assay type: cell-based; details: Colletotrichum orbiculare; 20 ppm in the applied formulation; liquid culture (PDB), growth inhibition measured photometrically after 3 to 4 days; compared to untreated control; read-out: disease control
Outline: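 Percent activity against the untreated check was derived from photometric growth measurements made 2 to 7 days after conidia in potato dextrose broth were combined with compound at 20 ppm. Cultures were kept dark at 24 °C and 96% humidity.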

CON(Cc1ccc(-c2noc(C(F)(F)F)n2)cc1)C(=O)C1CC1c1ccccc1 (stereo not drawn) [Compound 1.25, N-methoxy-2-phenyl-N-[[4-[5-(trifluoromethyl)-1,2,4-oxadiazol-3-yl]phenyl]methyl]-cyclopropane-carboxamide]
≥ 80%: pest or weed control at 200 ppm [1] | pest or weed control at 200 ppm [2] | inhibition of growth at 20 ppm [3]

O=C(C1OCCO1)N(Cc1ccc(-c2noc(C(F)(F)F)n2)cc1)CC1CCCO1 (stereo not drawn) [Compound 1.447, N-(tetrahydrofuran-2-ylmethyl)-N-[[4-[5-(trifluoromethyl)-1,2,4-oxadiazol-3-yl]phenyl]methyl]-1,3-dioxolane-2-carboxamide]
≥ 80%: pest or weed control at 200 ppm [1] | pest or weed control at 200 ppm [2] | inhibition of growth at 20 ppm [3]

O=C(CC(F)(F)F)N(Cc1ccc(-c2noc(C(F)(F)F)n2)cc1)CC1CCCO1 (stereo not drawn) [Compound 1.448, 3,3,3-trifluoro-N-(tetrahydrofuran-2-ylmethyl)-N-[[4-[5-(trifluoromethyl)-1,2,4-oxadiazol-3-yl]phenyl]methyl]-propanamide]
≥ 80%: pest or weed control at 200 ppm [1] | pest or weed control at 200 ppm [2] | inhibition of growth at 20 ppm [3]

CCN(Cc1ccc(-c2noc(C(F)(F)F)n2)cc1)C(=O)N(C)C(C)C [Compound 3.98, 1-ethyl-3-isopropyl-3-methyl-1-[[4-[5-(trifluoromethyl)-1,2,4-oxadiazol-3-yl]phenyl]methyl]urea]
≥ 80%: pest or weed control at 200 ppm [1] | pest or weed control at 200 ppm [2] | inhibition of growth at 20 ppm [3]

COCCC(=O)N(Cc1ccc(-c2noc(C(F)(F)F)n2)cc1)Cc1ccco1 [Compound 1.456, N-(2-furylmethyl)-3-methoxy-N-[[4-[5-(trifluoromethyl)-1,2,4-oxadiazol-3-yl]phenyl]methyl]-propanamide]
≥ 80%: pest or weed control at 200 ppm [1] | pest or weed control at 200 ppm [2] | inhibition of growth at 20 ppm [3]

COC(C)C(=O)N(Cc1ccc(-c2noc(C(F)(F)F)n2)cc1)CC1CCCO1 (stereo not drawn) [Compound 1.446, 2-methoxy-N-(tetrahydrofuran-2-ylmethyl)-N-[[4-[5-(trifluoromethyl)-1,2,4-oxadiazol-3-yl]phenyl]methyl]-propanamide]
≥ 80%: pest or weed control at 200 ppm [1] | pest or weed control at 200 ppm [2] | inhibition of growth at 20 ppm [3]

C#CC(=O)N(CCOC)Cc1ccc(-c2noc(C(F)(F)F)n2)cc1 [Compound 1.347, N-(2-methoxyethyl)-N-[[4-[5-(trifluoromethyl)-1,2,4-oxadiazol-3-yl]phenyl]methyl]prop-2-ynamide]
≥ 80%: pest or weed control at 200 ppm [1] | pest or weed control at 200 ppm [2] | inhibition of growth at 20 ppm [3]

COCCC(=O)N(Cc1ccc(-c2noc(C(F)(F)F)n2)cc1)CC1CCCO1 (stereo not drawn) [Compound 1.422, 3-methoxy-N-(tetrahydrofuran-2-ylmethyl)-N-[[4-[5-(trifluoromethyl)-1,2,4-oxadiazol-3-yl]phenyl]methyl]-propanamide]
≥ 80%: pest or weed control at 200 ppm [1] | pest or weed control at 200 ppm [2] | inhibition of growth at 20 ppm [3]

CON(C(=O)C1CC1)C(C)c1ccc(-c2noc(C(F)(F)F)n2)cc1 (stereo not drawn) [Compound 1.279, N-methoxy-N-[1-[4-[5-(trifluoromethyl)-1,2,4-oxadiazol-3-yl]phenyl]ethyl]-cyclopropane-carboxamide]
≥ 80%: pest or weed control at 200 ppm [1] | pest or weed control at 200 ppm [2] | inhibition of growth at 20 ppm [3]

COCC(=O)N(Cc1ccc(-c2noc(C(F)(F)F)n2)cc1)Cc1ccco1 [Compound 1.459, N-(2-furylmethyl)-2-methoxy-N-[[4-[5-(trifluoromethyl)-1,2,4-oxadiazol-3-yl]phenyl]methyl]-acetamide]
≥ 80%: pest or weed control at 200 ppm [1] | pest or weed control at 200 ppm [2] | inhibition of growth at 20 ppm [3]

CC1CC1C(=O)N(Cc1ccc(-c2noc(C(F)(F)F)n2)cc1)Cc1ccco1 (stereo not drawn) [Compound 1.460, N-(2-furylmethyl)-2-methyl-N-[[4-[5-(trifluoromethyl)-1,2,4-oxadiazol-3-yl]phenyl]methyl]-cyclopropane-carboxamide]
≥ 80%: pest or weed control at 200 ppm [1] | pest or weed control at 200 ppm [2] | inhibition of growth at 20 ppm [3]

CN(Cc1ccc(-c2noc(C(F)(F)F)n2)cc1)C(=O)N(C)CC1CC1 [Compound 3.83, 1-(cyclopropylmethyl)-1,3-dimethyl-3-[[4-[5-(trifluoromethyl)-1,2,4-oxadiazol-3-yl]phenyl]methyl]urea]
≥ 80%: pest or weed control at 200 ppm [1] | pest or weed control at 200 ppm [2] | inhibition of growth at 20 ppm [3]

COC(C)C(=O)N(C)Cc1ccc(-c2noc(C(F)(F)F)n2)cc1 (stereo not drawn) [Compound 1.530, 2-methoxy-N-methyl-N-[[4-[5-(trifluoromethyl)-1,2,4-oxadiazol-3-yl]phenyl]methyl]-propanamide]
≥ 80%: pest or weed control at 200 ppm [1] | pest or weed control at 200 ppm [2] | inhibition of growth at 20 ppm [3]

COCCN(Cc1ccc(-c2noc(C(F)(F)F)n2)cc1)C(=O)COC [Compound 1.328, 2-methoxy-N-(2-methoxyethyl)-N-[[4-[5-(trifluoromethyl)-1,2,4-oxadiazol-3-yl]phenyl]methyl]-acetamide]
≥ 80%: pest or weed control at 200 ppm [1] | pest or weed control at 200 ppm [2] | inhibition of growth at 20 ppm [3]

COCCOCC(=O)N(Cc1ccc(-c2noc(C(F)(F)F)n2)cc1)CC1CCCO1 (stereo not drawn) [Compound 1.427, 2-(2-methoxyethoxy)-N-(tetrahydrofuran-2-ylmethyl)-N-[[4-[5-(trifluoromethyl)-1,2,4-oxadiazol-3-yl]phenyl]methyl]-acetamide]
≥ 80%: pest or weed control at 200 ppm [1] | pest or weed control at 200 ppm [2] | inhibition of growth at 20 ppm [3]

COCCN(Cc1ccc(-c2noc(C(F)(F)F)n2)cc1)C(=O)C1CSC1 [Compound 1.334]
≥ 80%: pest or weed control at 200 ppm [1] | pest or weed control at 200 ppm [2] | inhibition of growth at 20 ppm [3]

CCN(C(=O)N(C)Cc1ccc(-c2noc(C(F)(F)F)n2)cc1)C1CC1 [Compound 3.71, 1-cyclopropyl-1-ethyl-3-methyl-3-[[4-[5-(trifluoromethyl)-1,2,4-oxadiazol-3-yl]phenyl]methyl]urea]
≥ 80%: pest or weed control at 200 ppm [1] | pest or weed control at 200 ppm [2] | inhibition of growth at 20 ppm [3]

CC(C)C(=O)N(Cc1ccc(-c2noc(C(F)(F)F)n2)cc1)Cc1ccco1 [Compound 1.463, N-(2-furylmethyl)-2-methyl-N-[[4-[5-(trifluoromethyl)-1,2,4-oxadiazol-3-yl]phenyl]methyl]-propanamide]
≥ 80%: pest or weed control at 200 ppm [1] | pest or weed control at 200 ppm [2] | inhibition of growth at 20 ppm [3]

CC1(C(=O)N(Cc2ccc(-c3noc(C(F)(F)F)n3)cc2)CC2CCCO2)COC1 (stereo not drawn) [Compound 1.438, 3-methyl-N-(tetrahydrofuran-2-ylmethyl)-N-[[4-[5-(trifluoromethyl)-1,2,4-oxadiazol-3-yl]phenyl)methyl]-oxetane-3-carboxamide]
≥ 80%: pest or weed control at 200 ppm [1] | pest or weed control at 200 ppm [2] | inhibition of growth at 20 ppm [3]

CCCC(C)(C)C(=O)N(Cc1ccc(-c2noc(C(F)(F)F)n2)cc1)OC [Compound 1.10, N-methoxy-2,2-dimethyl-N-[[4-[5-(trifluoromethyl)-1,2,4-oxadiazol-3-yl]phenyl]methyl]-pentanamide]
≥ 80%: pest or weed control at 200 ppm [1] | pest or weed control at 200 ppm [2] | inhibition of growth at 20 ppm [3]

O=C(C1CC1)N(CCO)Cc1ccc(-c2noc(C(F)(F)F)n2)cc1 [Compound 1.609, N-(2-hydroxyethyl)-N-[[4-[5-(trifluoromethyl)-1,2,4-oxadiazol-3-yl]phenyl]methyl]-cyclopropane-carboxamide]
≥ 80%: pest or weed control at 200 ppm [1] | pest or weed control at 200 ppm [2] | inhibition of growth at 20 ppm [3]
